Test results reported in patent publication US5958966A, “Treatment of aberrant cellular states with biomodulators” (University of New Mexico, priority 1995, dated 1999).
“Also recorded” adds a separate entry of the source. Read-outs that look alike come from different tables or passages of the source.

What was measured:
[1] = test system: human peripheral blood leukocytes (HPBL); experiment: stimulation / inhibition of IgG production in HPBL; type: cell-based; conditions: for activation at 0.1 µM: Homo sapiens, Leukocyte, 90 h
Procedure: Human peripheral blood leukocytes were cultured in a standard tissue culture medium. Aliquots of these cultured cells (1,000,000 cells/ml medium) were cultured for 6 hours, and the specified amount of Formula II compound was added; the cells were then cultured for an additional 90 hours. Sheep red blood cells (SRBC) conditioned with class-specific (IpG) goat anti-human antiserum (1:400) for 2 hours; then guinea pig complement (2%) for 2 hours were conjugated to Protein A as described in detail in Radioimmunoimaging and Radioimmunotherapy, Eds. S. W. Burchiel and B. A. Rhodes, Elsevier Science Publishing; New York, 1983, pp. 125-127, incorporated herein by reference.

Canine glioma cells = experiment: generation time of canine glioma cells (Formula II compound); type: cell-based; conditions: for Tg: control 18.6
Procedure: The cells were harvested every 72 hours after the controls had reached 85% confluency. Generation time (Tg) was determined as the number of hours required for the cell population to double.
Mean of triplicate determinations. Canine glioma cells were grown under conditions to promote exponential growth characteristics; 2×10^5cells in a T-25 flask. The cells were harvested every 72 hours after the controls had reached approximately 85% confluency. The drug was added at the initiation of culture in DMSO, the control cultures had just DMSO. The drug concentration was adjusted with DMS0 so that the final concentration of DMS0 was always 0.5%.

[2] = test system: human colon carcinoma cell line (LS-174); experiment: generation time of LS-174 human colon carcinoma cells; type: cell-based; conditions: for Tg: control 26.5
Procedure: The procedure of Example VA, above, was repeated except a human colon carcinoma cell line (LS-174) was used instead of the canine glioma cell line.
Mean of triplicate determinations. LS-174 cells (human colon carcinoma) were grown under conditions to promote exponential growth characteristics; 2×10^5 cells in a T-25 flask. The cells were harvested every 72 hours after the controls had reached approximately 85% confluency. The drug was added at the initiation of culture in DMSO, the control cultures had just DMS0. The drug concentration was adjusted with DMSO so that the final concentration of DMS0 was always 0.5%.

canine glioma tumors = canine glioma tumors in nude rats; type: in vivo, nude rat
Procedure: C57 BL/6 mice were injected I.M. with B-16 melanoma cells, maintained in culture in the right flank or shoulder. Tumor growth was monitored on a daily basis by physical measurement and by MRI/MRS on a weekly basis. Treatment routes were via intraperitoneal injection using various CAD between 1 μg and 0.001 μg per animal on a M, W, F injection schedule. The animals were terminated by CO2 when the tumors had become 1.0 cm in diameter. Lung metastases were counted.
Various biomodulators were tested in vivo for their effects on canine glioma tumors established and monitored as above for mice, but in nude rats.
The histology stain toluidine blue is in the lower right hand position for orientation.

P-815 mastocytoma cells = experiment: P-815 cytotoxic T lympholysis / cell mediated lympholysis; type: cell-based, mouse; conditions: hydrocortisone 2 mg day -2; hydroxyurea 10^-5 M
Procedure: In this case the P-815 is injected into the H-2 incompatible host and in the Brunner and Cerotini model an antigen specific lympholysis event occurs with an optimum on day 11 at an effector/target ratio of 100:1 with 30% lysis. If the spleens of the injected animals are removed on day three there is no observable cytotoxicity; however, if the spleen cells are treated with biomodulator (in this case PWM at 100 ng) there is an enormous increase in the cytotoxicity event. […] Our model involves at least seven point cytotoxicity curves and for comparison purposes we calculate the slope, intercept and correlation coefficients, and then use that data for further analyses. The slope represents a measure of the efficiency of kill and in the biomodulator treated cells is approximately […] versus 0.24 for the control antigen driven response on day 11. This represents a seven fold increase in simple cytotoxicity efficiency. […]
P 815 mastocytoma cells are grown in culture or as an ascites (DBA H-2/d) and injected into C57BL/6J mice (H-2/b). […] The specificity of the response is assessed by testing the cytotoxicity against EL-4 cells ([…]) which are NK insensitive and histoincompatible with the original target. […]
Seven effector/target ratios are tested and the percent lysis calculated. […]

canine glioma (CG) cells = experiment: cell surface oligosaccharide display of canine glioma cells (lectin binding, Scatchard, Gibb's Free Energy); type: cell-based
Description: Taken together these affinity differences account for almost 10 kcal of additional binding energy retrievable from interactions in the case of the IMR-90s which is unavailable to the CGs. […] This treatment regimen results in an increase in the Tg of the cells as well as changes in the proton linewidth of unfrozen water (shown below). […] This display more closely resembles that of the growth regulated IMR-90s. It should be noted that the actual lines on these figures are visual estimates however, the data in the boxes are calculated values. It is these values that are used to estimate the GFE for comparison purposes.
The cell surface oligosaccharide display was assessed by methods developed previously. In brief, cells from a sub-culturing were aliquotted into 96 well trays at 5×10^5 cells per ml, 100 μL aliquots. After 16 hours of culture the cells were washed, fixed, and blocked with 0.1% BSA/PBS. Optimal lectin concentrations (5 μg/ml)were used to give 80 to 90% saturation of the available sites. Three carbohydrate ligands at 10 μg concentrations in triplicate or quadruplicate were then used to prepare competition curves for the lectin binding. The Bound over Free (B/F) ratio was calculated and the Ligand microprocessor program was used to determine the optimal fit of the data to a polynomial generated model. The Gibb's Free Energy (GFE) was calculated from the Scatchard data on the competition assay by the following equation: GFE=-RT 1n Kequit. The proton NMR linewidth measurements were conducted as described previously.

canine glioma = canine glioma implanted in dog brain (Formula II / TF compounds); type: in vivo
Procedure: Canine glioma was implanted surgically into the brains of four outbred dogs (2×10^6 cells). This procedure normally causes death by tumor growth in 14-28 days. […]
Tumor progress was assessed at weekly intervals by NMR, employing GdDTPA as imaging agent. This method illuminates vascularization at the surface of the tumor, and provides images which correlate well with neuropathological observations.

HPBL / IMR-90 cells = experiment: biomodulator assay; type: cell-based, human
Description: a. Biomodulators cause, at a concentration in the general range of 100 pM-1 μm, the differentiation of lymphocytes. This differentiation can be detected by, for example, the increased production of specific and non-specific antibodies in response to the presence of biomodulator in the culture medium, e.g., according to the HPBL method discussed above in C, or the alteration in the class of antibodies being produced by a cell line, e.g., from IgM to IgG, e.g., according to the method disclosed in the same reference.
b. Biomodulators cause, at a concentration in the general range of 100 pM-1 μm, the alteration of the cell surface oligosaccharide display of IMR-90 cells in culture as discussed in A. above.
Activity in both of these assays is a necessary and sufficient measure of whether or not a given substance is a biomodulator, as defined herein.

[3] = test system: T-independent antigen (TNP-Ficoll) response; experiment: in vivo humoral response to TNP-Ficoll (plaque assay); set-up: species or system mouse; conditions: mice
Procedure: In this case both IgM and IgG hapten specific responses were recorded as well as non-antigen specific plaque responses (Ig-PFC) using a Protein A coated red blood cell target.
The TNP-Ficoll antigen is administered as the SRBC antigen was above, by i.p. injection and the response assessed by conjugating the TNP hapten directly to the SRBC target, thus obviating any potential "carrier" effect. […] In this case, a third experimental parameter has been added to the study, the production of non-specific immunoobulin (Ig-PFC). This parameter provides information on the general status of the humoral response regardless of antigen specificity. The TNP-Ficoll antigen does elicit a modest Ig-PFC response but little if any IgG specific response. […] In this case there is a very large specific and non-specific augmentation.

[4] = 10 nM, 12 × 4 h (so in the source)
[5] = pre-treated, 10 ng/kg I.P. M, W, F
[6] = 1 ng/kg I.P. begun same day as implantation

`CC(C)OC(=O)C[C@H](O)C[C@@H](O)/C=C/c1c(C(C)C)nc(-c2ccccc2)n1-c1ccc(F)cc1` (relative stereo) [Compound IIe'] was tested. Which “Stimulation of IgG Production” value ([1]; 1&100 nM) did it give?
The value was 1990%.

And the “IgG production in words” value ([1]; HPBL)?
The value was “stimulated IgG production”.

What about the activation at 0.1 µM ([1]; lower concentrations (100 nM), read-out: enhancement of IgG production) of the same compound?
Its activation at 0.1 µM is under 350%.

What about the “% Change (Tg)” value (Canine glioma cells; 10 nM, 72x2 h) of the same compound?
Its value is 129%.

And the Tg (Canine glioma cells; 10 nM, 72x2 h)?
Its Tg is 24.0 h.

What about the “% Change (Tg)” value (Canine glioma cells; 10 nM, 72x3 h) of the same compound?
Its value is 180%.

And the Tg (Canine glioma cells; 10 nM, 72x3 h)?
The Tg was 33.4 h.

What about the “% Change (Tg)” value (Canine glioma cells; 10 nM, 72x4 h) of the same compound?
Its value is 155%.

And the Tg (Canine glioma cells; 10 nM, 72x4 h)?
Its Tg is 28.9 h.

What about the “% Change (Tg)” value (Canine glioma cells; 10 nM, 72 h) of the same compound?
The value was 136%.

What about the contact inhibition (Canine glioma cells; cells approaching confluency) of the same compound?
The contact inhibition was “showed evidence of contact inhibition as the cells approached confluency”.

What about the “slowing of the growth rate” value (Canine glioma cells; three passages, 10 nM) of the same compound?
The value was 1.8 fold.

And the “% Change (Tg)” value [2, 4]?
Its value is 414%.

And the Tg [2, 4]?
Its Tg is 109.6 h.

What about the “% Change (Tg)” value ([2]; 10 nM, 72 × 2 h) of the same compound?
The value was 400%.

What about the Tg ([2]; 10 nM, 72 × 2 h) of the same compound?
The Tg was 106.2 h.

What about the “% Change (Tg)” value ([2]; 10 nM, 72 × 3 h) of the same compound?
The value was 416%.

What about the Tg ([2]; 10 nM, 72 × 3 h) of the same compound?
The Tg was 110.3 h.

And the “% Change (Tg)” value ([2]; 10 nM, 72 h)?
The value was 320%.

What about the “prolongation of generation time” value ([2]; three passages, 10 nM) of the same compound?
Its value is 4.16 fold.

What about the “generation time after drug withdrawal” value ([2]; two passages, data not shown) of the same compound?
Its value is “returned to control levels”.

For `CC(C)OC(=O)C[C@H](O)C[C@H](O)/C=C/c1c(C(C)C)nc(-c2ccccc2)n1-c1ccc(F)cc1` [HHD-3], which “effect on tumor growth” value (canine glioma tumors) is on record?
The value was “showed no regression effect, just delay of the control growth pattern”.

For `CC(C)OC(=O)C[C@H](O)C[C@@H](O)/C=C/c1c(C(C)C)nc(-c2ccccc2)n1-c1ccc(F)cc1` [HHD-7], which “effect on tumor growth” value (canine glioma tumors) is on record?
Its value is “showed the best regression”.

With `C[C@]12CCC(=O)C=C1CC[C@@H]1[C@@H]2[C@@H](O)C[C@@]2(C)[C@H]1CC[C@]2(O)C(=O)CO` [Hydrocortisone] as the compound, how does the “influence on the biomodulator effect on CML” value (P-815 mastocytoma cells) read?
Its value is “reduced the biomodulator effect”.

How did the “influence on the biomodulator effect on CML” value (P-815 mastocytoma cells) turn out when `NC(=O)NO` [Hydroxyurea] was run?
The value was “does not inhibit the biomodulator effect on CML”.

`CC(C)OC(=O)C[C@H](O)C[C@H](O)/C=C/c1c(C(C)C)nc(-c2ccccc2)n1-c1ccc(F)cc1` [IId] was tested. Which activation at 0.1 µM ([1]; 100 nM, read-out: Stimulation of IgG Production) did it give?
The activation at 0.1 µM was 320%.

How did the “exposure time for increase in GFE” value (canine glioma (CG) cells) turn out when `O[C@H]1[C@H]2[C@H](O)CCCN2C[C@H]1O` [Swainsonine (Sw)] was run?
Its value is “approximately 300 hours”.

How did the later tumor status (canine glioma; later studies, data not shown) turn out when `CC(C)c1nc(-c2ccccc2)n(-c2ccc(F)cc2)c1/C=C/[C@H](O)C[C@H](O)CC(=O)O` [TF-002] was run?
Its later tumor status is “free of tumor”.

And the “day of appearance of small tumor” value (canine glioma; [5])?
The value was 12 days.

And the “tumor regressed by day” value (canine glioma; [5])?
The value was at most 19 days.

With `CC(C)c1c(/C=C/C(O)CC(O)CC(=O)O)n(-c2ccc(F)cc2)c2ccccc12` (stereo not drawn) [TF-004] as the compound, how does the “complete regression by day” value (canine glioma; [6]) read?
Its value is at most 21 days.

And the “substantial regression by day” value (canine glioma; [6])?
Its value is at most 15 days.

And the “complete regression by day” value (canine glioma; treatment begun on Day 11)?
The value was at most 30 days.

What about the “substantial regression by day” value (canine glioma; treatment begun on Day 11) of the same compound?
Its value is at most 21 days.

Which biomodulator activity (HPBL / IMR-90 cells) does the source give for `Cc1c(/C=C/C(O)CC(O)CC(=O)O)ccc2c1C(O)CC(C)C2` (stereo not drawn) [colletruncoic acid] here?
The biomodulator activity was “has been shown to have biomodulator activity”.

With Dextran as the compound, how does the “PFC response to TNP-Ficoll” value [3] read?
The value was “some stimulatory effect; also recorded: marked cellular proliferation but little differentiative response”.
